Experiments:
[1] = system: Bacillus subtilis (environmental isolate); experiment: Cell viability assay (resazurin) screening for antibacterial activity; format: cell-based; set-up: key: Positive: A positive result indicates antibacterial activity expressed as growth inhibition; Negative: a negative result indicates no antibacterial activity expressed as bacterial growth at the tested concentration; conditions: single high concentration of 1 mg/mL
[2] = system: UDH-1 (environmental isolate, S. saprophyticus); experiment: MIC by broth microdilution; format: cell-based
Protocol: (§1) Bacteria of the genus Staphylococcus were selected for MIC investigation due to its clinical importance. Compounds showing activity against S. aureus (ATCC 25923) were tested against 10 multidrug-resistant strains of Staphylococcus species, including: clinical isolates methicillin-resistant Staphylococcus aureus (MRSA) strains MRSA-1, MRSA-2, and MRSA-3, and environmental isolates S. saprophyticus (strains UDH-1, UDH-2, UDH-3 and UDH-4), S. haemolyticus (strains UDH-6 and UDH-7), and S. epidermidis strain UDH-5.
(§2) All these strains were resistant to at least three antibiotics from different classes, as confirmed by a disk diffusion assay.
(§3) A broth microdilution method was used to measure MIC according to the Clinical and Laboratory Standards Institute guidelines. Two-fold serial dilutions of the test compound (8 concentrations ranged between 100-0.78 μg/mL) were tested. Two reference antibiotics were used as quality controls (ciprofloxacin and amikacin). In each experiment, solvent (DMSO) was used as a negative control, un-treated control (composing of bacteria in Mueller-Hinton broth) was used as a growth control, blank (culture media alone) was used as sterility control. The 96-well microplate with the test compounds was incubated for 20 hours at 37° C. Turbidity in wells indicated bacterial growth. […] For the definite determination of MIC, CellTiter-Blue® Cell Viability Assay (Promega, USA) was used (as above). The MIC was defined as the lowest compound concentration that prevented the color change of the Cell Viability solution (absence of bacterial growth; thus, suspension remained blue in color). For the definite determination of MIC, CellTiter-Blue® Cell Viability Assay (Promega, USA) was used (as above). To each well of the 96-well microplate, 20 μL of the Cell Viability Assay solution was added to the overnight (20 hours culture) and incubated at 37° C. for 4 hours. After the end of the incubation, pink and blue colors were used to differentiate viable from dead bacterial suspensions, respectively. The MIC was defined as the lowest compound concentration that prevented the color change.

[3] = system: UDH-2 (environmental isolate, S. saprophyticus); experiment: MIC by broth microdilution; format: cell-based; conditions: Staphylococcus saprophyticus
Protocol: as §1, §2, §3

[4] = system: UDH-3 (environmental isolate, S. saprophyticus); experiment: MIC by broth microdilution; format: cell-based
Protocol: as §1, §2, §3

[5] = system: UDH-4 (environmental isolate, S. saprophyticus); experiment: MIC by broth microdilution; format: cell-based; conditions: Staphylococcus saprophyticus
Protocol: as §1, §2, §3

[6] = system: UDH-5 (environmental isolate, S. epidermidis); experiment: MIC by broth microdilution; format: cell-based; conditions: Staphylococcus epidermidis
Protocol: as §1, §2, §3

[7] = system: UDH-6 (environmental isolate, S. haemolyticus); experiment: MIC by broth microdilution; format: cell-based
Protocol: as §1, §2, §3

[8] = system: UDH-7 (environmental isolate, S. haemolyticus); experiment: MIC by broth microdilution; format: cell-based
Protocol: as §1, §2, §3

MRSA-1 = experiment: Examination of bacterial cell walls by atomic force microscope (AFM); format: cell-based, Staphylococcus aureus; conditions: MRSA-1, 25 μg/mL, 4 hours
Protocol: Atomic force microscopy (AFM) provides three-dimensional images of the surfaces of living microbial cells in real time and in high resolution with minimal sample preparation. Compound 1o was tested against the bacterial strain MRSA-1 and the slides were examined under AFM. Specifically, FIGS. 5A1 and 5B1 show an untreated MRSA-1 strain at scan sizes of 10 μm^2 and […], respectively, and FIGS. 5A2 and 5B2 show a MRSA-1 strain treated with compound 1o at scan sizes of 10 μm^2 and 5 μm^2, respectively. […] Rapid bacterial killing coupled with cell wall damage as evidenced in the AFM images indicate the action of compound 1o on the cell wall, as reported for the known antibiotics like polymyxin, which rapidly breaks the cell membrane of Gram-negative bacteria, causing fast cell death.
Compound 1o was tested against the bacterial strain MRSA-1. Exponentially growing bacterial cells were prepared in Mueller-Hinton broth at a concentration of approximately 10^8 CFU/mL by adjusting the turbidity to 0.5 with a McFarland™ densitometer (DEN-1B, Grant-Bio, UK). […]

[9] = Staphylococcus saprophyticus, environmental isolate
[10] = Staphylococcus haemolyticus, environmental isolate

COC(=O)CC1COc2c(cc3c4c2CCCN4CCC3)-c2c(NC(C)(C)C)n3c(-c4ccc(Br)cc4)c(C)sc3[n+]21 (stereo not shown) [Compound 1o] was tested, and the “antibacterial activity, Bacillus subtilis” value [1] was “Positive”, the MIC [2, 9] was 6.25 mg/L and the “times lower than MIC of ciprofloxacin” value ([2]; UDH-1) was “approximately 10 times”. The MIC [3] was 6.25 mg/L, the MIC [4, 9] was 3.12 mg/L and the “times lower than MIC of ciprofloxacin” value ([4]; UDH-3) was “approximately 20 times”. It also gave an MIC [5] of 6.25 mg/L, an MIC [6] of 3.12 mg/L and an MIC [7, 10] of 6.25 mg/L. For the same molecule, the “times lower than MIC of ciprofloxacin” value ([7]; UDH-6) was “approximately 10 times”, the MIC [8, 10] was 6.25 mg/L and the “times lower than MIC of ciprofloxacin” value ([8]; UDH-7) was “approximately 10 times”. For the same molecule, the “bacterial cell morphology under AFM” value (MRSA-1) was “Bacterial cell shape distortion and leakage of the intracellular contents”.

Source: patent publication US10526343B2, “Heterocyclic systems and pharmaceutical applications thereof” (University of Sharjah, priority 2018, dated 2020)
